# Patent US9730902B2, “Polyamine transport inhibitors as novel therapeutics” (University of Central Florida Research Foundation, Inc., priority 2009, dated 2017)
# “Also recorded” adds a separate entry of the source.
# Assays:
# [1] = system: L3.6pl metastatic pancreatic cancer; experiment: Maximum tolerated dose (MTD) of the PTI; type: cell-based; settings: L3.6pl cell line
# [2] = system: L3.6pl metastatic pancreatic cancer; experiment: Block of putrescine rescue of DFMO-treated cells; type: cell-based, human
# Description: The MTD of 3c in this cell line is 5 μM. All treatments (DFMO, putrescine, and 3c) were dosed simultaneously and for a duration of 72 hours.
# The MTD of 3c in this cell line is 5 μM. All treatments (DFMO, putrescine, and 3c) were dosed simultaneously and for a duration of 48 hours.
# [3] = system: MiaPaca-2 pancreatic cancer; experiment: Block of putrescine rescue of DFMO-treated cells; type: cell-based, human
# Description: The MTD under DFMO treatment of 3c in this cell line is 1 μM and as such the therapy became toxic at 2 μM. If the therapy is not toxic to normal cells, then this therapy is also valid for concentrations above 1 μM. All treatments (DFMO, putrescine, and 3c) were dosed simultaneously and for a duration of 96 hours.
# CHO-K1 cells = experiment: Block of uptake of cytotoxic PAT probe Ant44 (cell rescue); type: cell-based, Chinese hamster; settings: for PAT inhibition: block of uptake of Ant44 at non-toxic concentrations; for rescue of cells from Ant44: inhibitor at 0.1 uM; for toxicity of inhibitor to cells: inhibitor at 100 uM in the presence of Ant44 (0.5 uM)
# Description: FIG. 6. In CHO-K1 cells, cytotoxic compound Ant44 was dosed at 0.5 μM in the presence of 2 mM aminoguanidine and either Triamide 5c or Trimer 3c at varying concentrations then incubated for 48 hours. […] Note: 5c was able to rescue the CHO cells from Ant44 but required a higher dose of 5c (1 uM). Note: […] Note that all experiments performed contained a maximum of 2 mM aminoguanidine to prevent break-down of polyamine analogues in the serum. This cell culture artifact only arises due to bovine copper-dependent serum amine oxidases which are not present in humans and are therefore not of a concern. […] This is reflective upon their low Ki values observed in L1210 cells (Phanstiel reference).
# FIG. 7. In CHO-K1 cells, the PAT-selective cytotoxic agent Ant44 was dosed at 0.5 μM in the presence of Trimer 3c at varying concentrations (in nM) and incubated for 48 hours. Note that 2 mM aminoguanidine was added to the media to blockade degradation by serum amine oxidases.
# In this manner, the PTI (e.g. 1 uM) dosed at completely non-toxic concentrations was able to block the uptake of the toxic Ant44 compound (Ant44 dosed at its IC50 value, 0.5 uM). […] These experiments (FIGS. 6 and 7) were done in Chinese hamster ovary cells (CHO-K1) cells.
# L3.6pl cells = experiment: Block of spermidine rescue of DFMO-treated cells; type: cell-based, human
# Description: FIG. 3 is a chart showing the block of spermidine rescue by trimer in a does dependent fashion in L3.6pl cells. […] This minimizes AG side-effects. […] The second assay measures the ability of the new transport inhibitor (the trimer 3c) to block rescue of DFMO-treated cells by spermidine. […] As shown below, the L3.6pl cells were dosed with 5 mM DFMO, which reduced their viability during the 48 hour incubation period to 60% of the control growth without DFMO (2nd column). However, these cells were rescued by the addition of exogenous spermidine (0.5 µM, 3rd column). […] However, in the presence of the trimer (i.e., the polyamine transport inhibitor 3c) we were able to block this rescue effect of spermidine (Spd) in a dose-dependent fashion (3c: 0.1 to 5 µM). For example, 3c at 2 µM in the presence of DFMO (5 mM)+spermidine (0.5 µM) gave 60% viability (7th column). Without the presence of the trimer, spermidine rescues the cells and one observes >90% viability (3rd column). The resulting data is in Table 1 and FIG. 3.
# [4] = system: MiaPaca-2 pancreatic cancer; experiment: MTD under DFMO treatment; type: cell-based
# From the text: (§1) This is defined as the “MTD under DFMO treatment.”
# SW620 cells = experiment: cells; settings: for Relative viability: human, 72 h
# Description: The first assay implements the growth of mammalian cells in a 96 well plate format on tissue culture plates.
# 1.) The media contains a maximum of 2 mM aminoguanidine and a minimum of 0.25 mM aminoguanidine to prevent a cell culture artifact (i.e., degradation of native polyamines and PTI structures that contain terminal amine structures (e.g., trimer 3c) by bovine serum amine oxidases present in the cell culture media). As a general rule, aminoguanidine (AG) is not dosed at a concentration which induces 20% or more cytostasis in the cell line examined. This minimizes AG side-effects. All of the following treatments are begun 24 hours after seeding the cells.
# 3.) The maximum tolerated dose (MTD) of the PTI is determined by titrating it without the presence of DFMO or polyamine. The MTD is defined as the maximum concentration of the drug (e.g., PTI) that is shown to keep 100% of the cell population alive compared to the control ±10%.
# as §1
# 6.) The combination of DFMO, polyamine, and PTI are treated concomitantly after 24 hours of growth in a 96-well tissue culture treated plate. The duration of treatment is determined by step 2 for all three reagents. The concentration of DFMO is determined in step 2, the concentration of polyamine is determined in step 4 and the concentration of PTI is determined by step 3, the MTD. Note if the MTD of the PTI is altered by the presence of DFMO then the “MTD under DFMO treatment” is used as determined in step 6. The untreated control cells, DFMO only treatment, and DFMO+polyamine treatment, must be shown on the same plate as the experimental samples with PTI to ensure that these controls are working properly.
# The first assay measures the ability of the new transport inhibitors to block rescue of DFMO-treated cells by putrescine (a native polyamine).
# import of putrescine = experiment: Selectivity of blocking import of native polyamines; type: cell-based; settings: putrescine versus spermidine and spermine, at the dosage used
# Panc-1 = experiment: Response of cell growth to DFMO; type: cell-based
# HCT-116 = experiment: Response of cell growth to DFMO; type: cell-based
# SW480 = experiment: Response of cell growth to DFMO; type: cell-based
# RKO = experiment: Response of cell growth to DFMO; type: cell-based
compound,measurement,setting,value
"NCCCCNCCCCNCc1cc(CNCCCCNCCCCN)cc(CNCCCCNCCCCN)c1 [3c, N-(4-Amino-butyl)-N′-(3,5-bis-{[4-(4-amino-butylamino)-butylamino]-methyl}-benzyl)-butane-1,4-diamine]",MTD,[1],5 µM
same,concentration from which treatment is effective,"[2]; competing with 0.5 μM of putrescine, 48 hours",0.5 µM
same,concentration from which treatment is effective,"[2]; competing with 1 μM of putrescine, 72 hours",1 µM
same,treatment effect,"[3]; 0.5 μM of 3c, 0.5 μM of putrescine, DFMO, 96 hours",incomplete but effective treatment
same,concentration from which treatment is effective,"[3]; competing with 0.5 μM of putrescine, with DFMO, 96 hours",1 µM
same,concentration able to protect CHO-K1 cells from Ant44,"CHO-K1 cells; Ant44 0.5 uM, 2 mM aminoguanidine, 48 hours, further titration",80 nM
same,PAT inhibition,CHO-K1 cells,potent PAT inhibitors
same,rescue of cells from Ant44,"CHO-K1 cells; Ant44 0.5 uM, 48 hours",complete rescue
same,toxicity of inhibitor to cells,CHO-K1 cells,moderate toxicity
same,% Viability,"L3.6pl cells; 5 mM DFMO + 0.5 uM Spd + trimer 0.1, 48 hour",90%
same,% Viability,"L3.6pl cells; 5 mM DFMO + 0.5 uM Spd + trimer 0.5, 48 hour",88%
same,% Viability,"L3.6pl cells; 5 mM DFMO + 0.5 uM Spd + trimer 1, 48 hour",73%
same,% Viability,"L3.6pl cells; 5 mM DFMO + 0.5 uM Spd + trimer 2, 48 hour",60%
same,% Viability,"L3.6pl cells; 5 mM DFMO + 0.5 uM Spd + trimer 3, 48 hour",53%
same,% Viability,"L3.6pl cells; 5 mM DFMO + 0.5 uM Spd + trimer 5, 48 hour",45%
same,MTD under DFMO treatment,"[4]; MiaPaca-2, 96 hours",1 µM
same,concentration at which the therapy became toxic,"[4]; MiaPaca-2, with DFMO, 96 hours",2000 nM
same,Relative viability,SW620 cells; 0.1 uM,100%
same,Relative viability,SW620 cells; 0.5 uM,75%
"NCCCCNCCCCNC(=O)c1cc(C(=O)NCCCCNCCCCN)cc(C(=O)NCCCCNCCCCN)c1 [5c, Benzene-1,3,5-tricarboxylic acid tris-{[4-(4-amino-butylamino)-butyl]-amide}]",dose required to rescue the CHO cells from Ant44,"CHO-K1 cells; Ant44 0.5 uM, 48 hours",1 µM
same,PAT inhibition,CHO-K1 cells,potent PAT inhibitors
same,rescue of cells from Ant44,"CHO-K1 cells; Ant44 0.5 uM, 48 hours",unable to rescue
same,toxicity of inhibitor to cells,CHO-K1 cells,moderate toxicity
same,selectivity of blocking import of native polyamines,import of putrescine,selectively blocks import of putrescine; also recorded: specific for putrescine
"NCCCCNCCCCNCc1c2ccccc2cc2ccccc12 [Ant44, anthracen-9-ylmethyl-homospermidine conjugate, reference compound]",viability relative to untreated CHO-K1 cells,"CHO-K1 cells; Ant44 0.5 uM without PAT inhibitor, 2 mM aminoguanidine, 48 hours",40%
same,IC50,"CHO-K1 cells; cytotoxicity of Ant44, CHO-K1",500 nM
"NCCCCN [Putrescine, putrescine, reference compound]",viability at 1 µM,"SW620 cells; Homo sapiens, SW-620, 72 h, read-out: Relative viability",100%
"NCCCCNCCCN [spermidine, reference compound]",% Viability,"L3.6pl cells; 5 mM DFMO + 0.5 uM Spd, no trimer, 48 hour",> 90%
same,% Viability,"L3.6pl cells; 5 mM DFMO + 0.5 uM Spd, no trimer, 48 hour, listed as Spd",91%
difluoromethylornithine [DFMO],response to DFMO,Panc-1,respond to DFMO in a time dependent matter
same,response to DFMO,HCT-116,respond to DFMO in a time dependent matter
same,DFMO reduction in cell growth,"[3]; 48, 72 and 96 hours",time dependent
same,response to DFMO,SW480,respond to DFMO in a time dependent matter
same,response to DFMO,RKO,respond to DFMO in a time dependent matter
same,reduction in growth,"SW620 cells; DFMO (1 mM), MTS assay",50%
